Data: publication PMC8776995 (Frontiers in Chemistry, 2022)
“And” between values parts separate entries of the source, which are not always exact repeats. Equal entries are not always repeated. Where two headings read alike, the source gives them in different places.

Tests used:
wild-type EGFR = wild-type EGFR (Homo sapiens, UniProt P00533); experiment: EGFR kinase assay (ELISA); details: for IC50: IC50 (μM) EGFR, ELISA, 3 μmol/L ATP
H460 cells = experiment: CCK-8 antiproliferation assay, H460; details: for Inhibitory efficacy: single repeats (Repeat 1-3), given as fraction; for inhibition at 2 µM: NCI-H460, read-out: Inhibitory efficacy, H460, 2uM, single repeats (Repeat 1-3), given as fraction; for inhibition at 4 µM: NCI-H460, read-out: Inhibitory efficacy, H460, 4uM, single repeats (Repeat 1-3), given as fraction; for inhibition at 8 µM: NCI-H460, read-out: Inhibitory efficacy, H460, 8uM, single repeats (Repeat 1-3), given as fraction; for inhibition at 16 µM: NCI-H460, read-out: Inhibitory efficacy, H460, 16uM, single repeats (Repeat 1-3), given as fraction
A549 cells = experiment: CCK-8 antiproliferation assay, A549; details: for Inhibitory efficacy: A549 cells; for Inhibitory efficacy / inhibition at 1 µM / inhibition at 2 µM / inhibition at 4 µM / inhibition at 8 µM / inhibition at 16 µM: given as fraction, Repeat 1-3; for inhibition at 1 µM / inhibition at 2 µM / inhibition at 4 µM / inhibition at 8 µM / inhibition at 16 µM: A549, read-out: Inhibitory efficacy, A549 cells
PC-9 cells = experiment: CCK-8 antiproliferation assay, PC-9; details: for IC50 / inhibition at 4 µM / inhibition at 8 µM / inhibition at 16 µM: Homo sapiens; for IC50: PC-9, 48 h, read-out: IC50 (μM) PC-9; for inhibition at 4 µM: PC-9, read-out: Inhibitory efficacy, PC-9, 4uM, single repeats (Repeat 1-3), given as fraction; for inhibition at 8 µM: PC-9, read-out: Inhibitory efficacy, PC-9, 8uM, single repeats (Repeat 1-3), given as fraction; for inhibition at 16 µM: PC-9, read-out: Inhibitory efficacy, PC-9, 16uM, single repeats (Repeat 1-3), given as fraction; for Inhibitory efficacy: single repeats (Repeat 1-3), given as fraction
H1975 cells = experiment: CCK-8 antiproliferation assay, H1975; details: for Inhibitory efficacy: H1975 cells
[1] = 0.3 nM, duplicate wells, calculated from A450
[2] = 0.3 nM, duplicate wells, calculated from A450, 0.0003 µM
[3] = 3000 nM, duplicate wells, calculated from A450
[4] = 3000 nM, duplicate wells, calculated from A450, 3 µM
[5] = 30000 nM, duplicate wells, calculated from A450
[6] = 30000 nM, duplicate wells, calculated from A450, 30 µM
[7] = 4uM, given as fraction, Repeat 1-3
[8] = 8uM, given as fraction, Repeat 1-3
[9] = 16uM, given as fraction, Repeat 1-3
[10] = Homo sapiens, NCI-H1975, 48 h, read-out: IC50 (μM) H1975, CCK-8, 48 h, average ± SD of three independent experiments
[11] = Homo sapiens, NCI-H1975, read-out: Inhibitory efficacy, H1975 cells, 4uM, given as fraction, Repeat 1-3
[12] = Homo sapiens, NCI-H1975, read-out: Inhibitory efficacy, H1975 cells, 8uM, given as fraction, Repeat 1-3
[13] = Homo sapiens, NCI-H1975, read-out: Inhibitory efficacy, H1975 cells, 16uM, given as fraction, Repeat 1-3

Chain of wild-type EGFR (P00533 25-1210): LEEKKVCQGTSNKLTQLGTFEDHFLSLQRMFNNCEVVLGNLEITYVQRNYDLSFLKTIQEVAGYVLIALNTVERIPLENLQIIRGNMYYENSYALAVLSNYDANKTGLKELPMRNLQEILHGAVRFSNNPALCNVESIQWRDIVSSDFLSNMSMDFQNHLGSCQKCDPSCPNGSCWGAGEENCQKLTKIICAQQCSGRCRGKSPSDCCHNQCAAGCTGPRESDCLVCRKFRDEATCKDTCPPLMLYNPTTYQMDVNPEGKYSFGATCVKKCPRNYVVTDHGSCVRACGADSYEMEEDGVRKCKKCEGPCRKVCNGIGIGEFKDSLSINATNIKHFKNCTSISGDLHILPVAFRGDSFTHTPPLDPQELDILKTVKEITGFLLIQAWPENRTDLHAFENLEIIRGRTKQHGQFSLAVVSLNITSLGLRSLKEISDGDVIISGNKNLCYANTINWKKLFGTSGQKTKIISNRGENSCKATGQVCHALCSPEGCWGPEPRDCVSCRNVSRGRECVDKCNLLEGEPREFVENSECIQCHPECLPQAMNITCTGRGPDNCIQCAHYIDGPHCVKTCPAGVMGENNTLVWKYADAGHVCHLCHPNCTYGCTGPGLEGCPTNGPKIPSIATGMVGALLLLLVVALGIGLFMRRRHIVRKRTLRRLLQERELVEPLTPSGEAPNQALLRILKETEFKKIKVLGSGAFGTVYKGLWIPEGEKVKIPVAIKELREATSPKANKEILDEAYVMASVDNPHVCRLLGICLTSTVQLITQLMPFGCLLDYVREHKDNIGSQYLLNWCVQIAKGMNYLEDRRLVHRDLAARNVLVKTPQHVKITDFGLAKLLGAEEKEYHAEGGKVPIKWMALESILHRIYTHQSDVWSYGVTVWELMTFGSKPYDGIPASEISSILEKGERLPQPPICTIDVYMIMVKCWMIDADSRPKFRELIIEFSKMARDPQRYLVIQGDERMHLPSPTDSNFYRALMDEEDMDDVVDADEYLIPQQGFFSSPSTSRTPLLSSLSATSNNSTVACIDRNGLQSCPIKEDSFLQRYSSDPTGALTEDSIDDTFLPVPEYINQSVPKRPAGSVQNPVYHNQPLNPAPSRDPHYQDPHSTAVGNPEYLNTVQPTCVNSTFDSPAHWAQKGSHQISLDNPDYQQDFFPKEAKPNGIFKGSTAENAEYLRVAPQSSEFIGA

Compound: COCCOc1cc2ncnc(Nc3cccc(-c4cn(-c5ccccc5Br)nn4)c3)c2cc1OCCOC [e9, [6,7-Bis-(2-methoxy-ethoxy)-quinazolin-4-yl]-{3-[1-(2-bromo-phenyl)-1H-[1,2,3]triazol-4-yl]-phenyl}-amine]
- melting point: 93 to 97 °C
- inhibition at 0.0003 µM (wild-type EGFR; [1]): 0.816%
- Inhibition (wild-type EGFR; [2]): 0.7055
- inhibition at 3 µM (wild-type EGFR; [3]): 41.4%
- Inhibition (wild-type EGFR; [4]): 44.4444
- inhibition at 30 µM (wild-type EGFR; [5]): 89.8%
- Inhibition (wild-type EGFR; [6]): 89.9471
- IC50 (wild-type EGFR): 3.83 µM
- Inhibitory efficacy (H460 cells; H460, 2uM, 2 µM): 0.3746 and 0.3508
- Inhibitory efficacy (H460 cells; H460, 4uM, 4 µM): 0.6113 and 0.6209
- Inhibitory efficacy (H460 cells; H460, 8uM, 8 µM): 0.7678 and 0.7392
- Inhibitory efficacy (H460 cells; H460, 16uM, 16 µM): 0.7559 and 0.7615
- inhibition at 2 µM (H460 cells; Homo sapiens): 40.3%
- inhibition at 4 µM (H460 cells; Homo sapiens): 72.6%
- inhibition at 8 µM (H460 cells; Homo sapiens): 76.5%
- inhibition at 16 µM (H460 cells; Homo sapiens): 77.3%
- Inhibitory efficacy (A549 cells; 1uM): 0.1197 and 0.1367
- Inhibitory efficacy (A549 cells; 2uM): 0.3287 and 0.2555
- Inhibitory efficacy (A549 cells; 4uM): 0.8462 and 0.8405
- Inhibitory efficacy (A549 cells; 8uM): 0.9628 and 0.9656
- Inhibitory efficacy (A549 cells; 16uM): 0.9642 and 0.9671
- inhibition at 1 µM (A549 cells; Homo sapiens, 1uM): 16%
- inhibition at 2 µM (A549 cells; Homo sapiens, 2uM): 26.7%
- inhibition at 4 µM (A549 cells; Homo sapiens, 4uM): 82.8%
- inhibition at 8 µM (A549 cells; Homo sapiens, 8uM): 95.9%
- inhibition at 16 µM (A549 cells; Homo sapiens, 16uM): 96.6%
- IC50 (PC-9 cells): 7.63 ± 1.69 µM
- inhibition at 4 µM (PC-9 cells): 42.1%
- inhibition at 8 µM (PC-9 cells): 57.9%
- inhibition at 16 µM (PC-9 cells): 54.2%
- Inhibitory efficacy (PC-9 cells; PC-9, 4uM, 4 µM): 0.4231 and 0.428
- Inhibitory efficacy (PC-9 cells; PC-9, 8uM, 8 µM): 0.5458 and 0.6686
- Inhibitory efficacy (PC-9 cells; PC-9, 16uM, 16 µM): 0.5655 and 0.5078
- Inhibitory efficacy (H1975 cells; 1uM, given as fraction, Repeat 1-3): 0.171 and 0.2074
- Inhibitory efficacy (H1975 cells; [7]): 0.4371 and 0.3791
- Inhibitory efficacy (H1975 cells; [8]): 0.5337 and 0.5679
- Inhibitory efficacy (H1975 cells; [9]): 0.6418 and 0.6475
- IC50 (H1975 cells; [10]): < 10 µM
- inhibition at 1 µM (H1975 cells; Homo sapiens, NCI-H1975, read-out: Inhibitory efficacy, H1975 cells, 1uM, given as fraction, Repeat 1-3): 15.5%
- inhibition at 4 µM (H1975 cells; [11]): 37.6%
- inhibition at 8 µM (H1975 cells; [12]): 58%
- inhibition at 16 µM (H1975 cells; [13]): 66.8%
- IC50 (H1975 cells; read-out: IC50 (μM) H1975, CCK-8, 48 h, average ± SD of three independent experiments): 6.86 ± 0.17 µM

Compound: COCCOc1cc2ncnc(Nc3cccc(-c4cn(-c5ccc(F)cc5)nn4)c3)c2cc1OCCOC [e7, [6,7-Bis-(2-methoxy-ethoxy)-quinazolin-4-yl]-{3-[1-(4-fluoro-phenyl)-1H-[1,2,3]triazol-4-yl]-phenyl}-amine]
- melting point: 88 to 91 °C
- inhibition at 0.0003 µM (wild-type EGFR; [1]): 6.05%
- Inhibition (wild-type EGFR; [2]): 3.39
- inhibition at 0.003 µM (wild-type EGFR; 3 nM, duplicate wells, calculated from A450): 8.07%
- Inhibition (wild-type EGFR; 3 nM, duplicate wells, calculated from A450, 0.003 µM): 4.0678
- inhibition at 0.03 µM (wild-type EGFR; 30 nM, duplicate wells, calculated from A450): 9.08%
- Inhibition (wild-type EGFR; 30 nM, duplicate wells, calculated from A450, 0.03 µM): 6.78
- inhibition at 0.3 µM (wild-type EGFR; 300 nM, duplicate wells, calculated from A450): 10.9%
- Inhibition (wild-type EGFR; 300 nM, duplicate wells, calculated from A450, 0.3 µM): 7.627
- inhibition at 3 µM (wild-type EGFR; [3]): 13.4%
- Inhibition (wild-type EGFR; [4]): 20.339
- inhibition at 30 µM (wild-type EGFR; [5]): 61%
- Inhibition (wild-type EGFR; [6]): 71.3559
- IC50 (wild-type EGFR): 14.7 µM
- Inhibitory efficacy (H460 cells; H460, 1uM, 1 µM): 0.233 and 0.152
- Inhibitory efficacy (H460 cells; H460, 2uM, 2 µM): 0.3048 and 0.3792
- Inhibitory efficacy (H460 cells; H460, 4uM, 4 µM): 0.2364 and 0.2572
- Inhibitory efficacy (H460 cells; H460, 8uM, 8 µM): 0.2581 and 0.2146
- Inhibitory efficacy (H460 cells; H460, 16uM, 16 µM): 0.3099 and 0.4184
- IC50 (H460 cells; Homo sapiens, NCI-H460, 48 h, read-out: IC50 (μM) H460, CCK-8, 48 h, average ± SD of three independent experiments): > 100 µM
- inhibition at 1 µM (H460 cells; Homo sapiens, NCI-H460, read-out: Inhibitory efficacy, H460, 1uM, single repeats (Repeat 1-3), given as fraction): 13.2%
- inhibition at 2 µM (H460 cells; Homo sapiens): 30.4%
- inhibition at 4 µM (H460 cells; Homo sapiens): 30.3%
- inhibition at 8 µM (H460 cells; Homo sapiens): 29.6%
- inhibition at 16 µM (H460 cells; Homo sapiens): 26.7%
- Inhibitory efficacy (A549 cells; 1uM): 0.3498 and 0.2466
- Inhibitory efficacy (A549 cells; 2uM): 0.3315 and 0.2534
- Inhibitory efficacy (A549 cells; 4uM): 0.2813 and 0.2524
- Inhibitory efficacy (A549 cells; 8uM): 0.2486 and 0.3238
- Inhibitory efficacy (A549 cells; 16uM): 0.291 and 0.2842
- IC50 (A549 cells; Homo sapiens, A549, 48 h, read-out: IC50 (μM) A549, CCK-8, 48 h, average ± SD of three independent experiments): > 100 µM
- inhibition at 1 µM (A549 cells; Homo sapiens, 1uM): 27.5%
- inhibition at 2 µM (A549 cells; Homo sapiens, 2uM): 24.8%
- inhibition at 4 µM (A549 cells; Homo sapiens, 4uM): 30.8%
- inhibition at 8 µM (A549 cells; Homo sapiens, 8uM): 29.7%
- inhibition at 16 µM (A549 cells; Homo sapiens, 16uM): 37.2%
- IC50 (PC-9 cells): 11.5 ± 1.57 µM
- inhibition at 4 µM (PC-9 cells): 21.3%
- inhibition at 8 µM (PC-9 cells): 41.9%
- inhibition at 16 µM (PC-9 cells): 62.5%
- Inhibitory efficacy (PC-9 cells; PC-9, 4uM, 4 µM): 0.2652 and 0.1935
- Inhibitory efficacy (PC-9 cells; PC-9, 8uM, 8 µM): 0.448 and 0.4014
- Inhibitory efficacy (PC-9 cells; PC-9, 16uM, 16 µM): 0.5556 and 0.543
- Inhibitory efficacy (H1975 cells; 2uM, given as fraction, Repeat 1-3): 0.2223 and 0.2165
- Inhibitory efficacy (H1975 cells; [7]): 0.3132 and 0.3374
- Inhibitory efficacy (H1975 cells; [8]): 0.4723 and 0.4708
- Inhibitory efficacy (H1975 cells; [9]): 0.4151 and 0.4664
- IC50 (H1975 cells; [10]): 13.1 ± 4.41 µM
- inhibition at 2 µM (H1975 cells; Homo sapiens, NCI-H1975, read-out: Inhibitory efficacy, H1975 cells, 2uM, given as fraction, Repeat 1-3): 29.3%
- inhibition at 4 µM (H1975 cells; [11]): 38.9%
- inhibition at 8 µM (H1975 cells; [12]): 50.2%
- inhibition at 16 µM (H1975 cells; [13]): 54.1%
